Values of other authors as cited in patent US9428458B2, “Substituted pyridoxine-lactam carboxylate-salts” (ALCOBRA LTD., priority 2008, dated 2016).

Conditions: ca. 900 mg daily dose administered intravenously

Substance: pyridoxine L-2-pyrrolidone-5-carboxylate [metadoxine]
- side effects associated with the use of metadoxine: nausea and vomiting
